Data as given in US20080004306A1, “Compositions and methods for modulating gated ion channels” (PainCeptor Pharma Corporation, priority 2006, published 2008).

Assays:
hASIC1a [1] = biological target: T1, hASIC1a (Homo sapiens, UniProt P78348); experiment: Two-electrode voltage clamp in Xenopus laevis oocytes expressing gated ion channels (Xo, Example 3); assay type: cell-based; settings: for inhibition at 50 µM: read-out: % inh. at 50 μM (Xo)
T1 construct: expressed in transfected cells; host or cells: Xenopus laevis oocytes, nuclear microinjection of an expression vector such as pCDNA3
T1 sequence (P78348 1-528): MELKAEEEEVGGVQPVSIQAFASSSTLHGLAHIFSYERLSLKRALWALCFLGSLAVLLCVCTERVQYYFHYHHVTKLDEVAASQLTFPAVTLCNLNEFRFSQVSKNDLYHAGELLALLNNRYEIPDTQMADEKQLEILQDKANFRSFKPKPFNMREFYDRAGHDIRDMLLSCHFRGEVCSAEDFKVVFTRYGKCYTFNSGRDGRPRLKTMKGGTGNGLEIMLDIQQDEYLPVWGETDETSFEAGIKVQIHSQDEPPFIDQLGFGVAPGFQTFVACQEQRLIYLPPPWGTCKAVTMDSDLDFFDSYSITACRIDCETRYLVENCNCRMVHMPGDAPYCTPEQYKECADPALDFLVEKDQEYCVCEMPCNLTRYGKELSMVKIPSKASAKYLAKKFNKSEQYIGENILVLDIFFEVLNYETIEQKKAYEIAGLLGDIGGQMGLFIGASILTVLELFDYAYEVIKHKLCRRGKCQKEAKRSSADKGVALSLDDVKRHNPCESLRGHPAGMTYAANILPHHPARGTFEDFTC
Method: Two-electrode voltage clamp electrophysiological assays in Xenopus laevis oocytes expressing gated ion channels are performed as follows:
Oocytes are surgically removed from adult Xenopus laevis and treated for 2 h at room temperature with 1 mg/ml type I collagenase (Sigma) in Barth's solution under mild agitation. Selected oocytes at stage IV-V are defolliculated manually before nuclear microinjection of 2.5-5 ng of a suitable expression vector, such as pCDNA3, comprising the nucleotide sequence encoding a gated ion channel subunit protein. In such an experiment, the oocytes express homomultimeric proton-gated ion channels on their surface. In an alternate experiment, one, two, three or more vectors comprising the coding sequences for distinct gated ion channel subunits are co-injected in the oocyte nuclei. In the latter case, oocytes express heteromultimeric proton-gated ion channels. […] Once impaled with the microelectrodes, oocytes are continuously superfused at 10-12 ml/min with a modified Ringer's solution containing 97 mM NaCl, 2 mM KCl, 1.8 mM CaCl2, and 10 mM HEPES brought to pH 7.4 with NaOH (Control Ringer). Test Ringer solution is prepared by replacing HEPES with MES and adjusting the pH to the desired acidic value. Compounds of the present invention are prepared in both the Control and Test Ringer solutions and applied to oocytes at room temperature through a computer-controlled switching valve system. […] Similarly, recordings can also be acquired in an automated multichannel oocytes system as the OpusExpress™ (Molecular Devices, Sunnyvale, USA).

[2] = tested on: thermal hyperalgesia from carrageenan-induced paw inflammation; experiment: Carrageenan model, thermal hyperalgesia (Hargreaves' assay); assay type: in vivo, rat
Method: Acute inflammatory hyperalgesia is induced in rats by unilateral injection of […] of a 3% solution of 1-carrageenan into the plantar surface of the left hind paw 2-4 h prior to testing. Thermal nociceptive thresholds are determined according to the method described elsewhere (Hargreaves et al., 1988). Briefly, through the glass surface, a radiant heat source (8 V, 50 W projector bulb) is focused onto the plantar surface of the hind paw. The rat's paw-withdrawal latency to this stimulus is recorded to the nearest 0.1 s. Each latency score is an average of three trials, which are separated by at least 5 min. In all rats, both the injured and uninjured hind paws are similarly tested, allowing direct comparisons between inflamed and non-inflamed paws.

hASIC1a [3] = biological target: T1, hASIC1a; experiment: Whole cell patch clamp in HEK293 cells transfected with hASIC1a (Example 2); assay type: cell-based; settings: six point dose-response, whole cell patch clamp (FIG. 1B), read-out: IC50, inhibition of acid-induced hASIC1a activity
Method: Another example of an in vitro assessment method consists of using mammalian heterologous expression systems, which are known to the skilled in the art, and include a variety of mammalian cell lines such as COS, HEK, e.g., HEK293and/or CHO, cells. Cell lines are transfected with gated ion channel(s) and used to perform electrophysiology as follows:
All experiments are performed at room temperature (20-25° C.) in voltage clamp using conventional whole cell patch clamp methods (Neher, E., et al. (1978) Pfluegers Arch 375:219-228).
The amplifier used is the EPC-9 (HEKA-electronics, Lambrect, Germany) run by a Macintosh G3 computer via an ITC-16 interface. Experimental conditions are set with the Pulse-software accompanying the amplifier. […]
Coverslips with the cells are transferred to a 15 μl experimental chamber mounted on the stage of an inverted microscope (IMT-2, Olympus) supplied with Nomarski optics. […] The cells are held at a holding voltage of −60 mV and at the start of each experiment the current is continuously measured for 45 s to ensure a stable baseline. […] Current amplitudes are measured at the peak of the responses, and effect of the compounds is calculated as the amplitude at compound equilibrium divided by the amplitude of the current evoked by the pulse just before the compound is included. […]

[4] = Xenopus laevis oocytes, two-electrode voltage clamp
[5] = Xenopus laevis oocytes, two-electrode voltage clamp, Table 1, read-out: IC50 (Xo)

Row | Structure (SMILES) | inhibition at 50 µM (hASIC1a [1]; [4]) [%] | IC50 (hASIC1a [1]; [5]) [µM] | other results
1 | CCN1CCc2c(-c3ccccc3)cc3c(c2C1)NC(=O)C3SC (stereo not drawn) [Compound 1] | 25 to 45 | – | –
2 | CCN1CCc2c(-c3ccccc3)cc3c(c2C1)NC(=O)C3=CNCCO [Compound 4] | < 25 | – | –
3 | CCN1CCc2c(-c3cc(F)ccc3OC)cc3cc[nH]c3c2C1 [Compound 7] | – | > 50 | –
4 | CCN1CCc2c(-c3ccccc3)cc3c(N)n[nH]c3c2C1 [Compound 6] | – | > 50 | –
5 | CCN1CCc2c(-c3ccccc3)cc3c(c2C1)NC(=O)C3 [Compound 2] | < 25 | – | –
6 | CCN1CCc2c(-c3ccccc3)cc3c(c2C1)NC(=O)C3=CN [Compound 5] | > 50 | – | effect on thermal hyperalgesia ([2]; 75 mg/kg s.c., given 30 min prior to carrageenan, 2-4 hours post-carrageenan, versus control paw level): completely reversed; ED50 ([2]; Rattus norvegicus, sc, 30 min prior to carrageenan, tested 2, 3 and 4 h post carrageenan): ~50 mg/kg; IC50 (hASIC1a [3]): 15 µM; IC50 (hASIC1a [1]; three point dose-response, acid-induced hASIC1a currents in Xenopus laevis oocytes (FIG. 1A), read-out: IC50, half maximal inhibition of the acid-evoked response in hASIC1a): 10 µM
7 | CCN1CCc2c(-c3cc(F)ccc3OC)cc3c(C=O)c[nH]c3c2C1 [Compound 8] | – | > 50 | –
8 | CCN1CCc2c(-c3ccccc3)cc3c(C=O)c[nH]c3c2C1 [Compound 10] | – | > 50 | –
9 | CCN1CCc2c(-c3ccccc3)cc3c(C(N)=O)c[nH]c3c2C1 [Compound 11] | – | > 50 | –
10 | CCN1CCc2c(-c3ccccc3)cc3cc[nH]c3c2C1 [Compound 9] | – | > 50 | –
11 | CCN1CCc2c(-c3ccccc3)cc3c(c2C1)NC(=O)C3=CNC [Compound 3] | < 25 | – | –
